PMC5218480 (PLoS ONE, 2017)

Test system: MV-4-11 cells
Experiment: Gene expression microarray analysis (Affymetrix PrimeView) and GSEA
Type: cell-based, human
Parameters: RFU PODN (11730768_x_at) / Fold change /veh PODN (11730768_x_at) / RFU LINC00158 (11744669_a_at) / Fold change /veh LINC00158 (11744669_a_at) / RFU DUSP10 (11751237_a_at) / Fold change /veh DUSP10 (11751237_a_at) / RFU ID3 (11757404_x_at) / Fold change /veh ID3 (11757404_x_at) / RFU PLEKHG5 (11737974_s_at) / Fold change /veh PLEKHG5 (11737974_s_at) / RFU LRRC4B (11730491_at) / Fold change /veh LRRC4B (11730491_at) / RFU GIMAP4 (11747438_a_at) / Fold change /veh GIMAP4 (11747438_a_at) / RFU KRT8 (11758183_x_at) / Fold change /veh KRT8 (11758183_x_at) / RFU CNN1 (11734310_a_at) / Fold change /veh CNN1 (11734310_a_at) / RFU VPS37D (11726825_at) / Fold change /veh VPS37D (11726825_at) / RFU C10orf10 (11716522_x_at) / Fold change /veh C10orf10 (11716522_x_at) / RFU KIR2DL2 /// KIR2DL4 /// KIR2DL5A /// KIR2DL5B /// KIR2DS1 /// KIR2DS2 /// KIR2DS3 /// KIR2DS4 /// KIR3DL3 /// KIR3DL3 /// KIR3DS1 (11738374_at) / Fold change /veh KIR2DL2 /// KIR2DL4 /// KIR2DL5A /// KIR2DL5B /// KIR2DS1 /// KIR2DS2 /// KIR2DS3 /// KIR2DS4 /// KIR3DL3 /// KIR3DL3 /// KIR3DS1 (11738374_at) / RFU C1QL1 (11718748_at) / Fold change /veh C1QL1 (11718748_at) / RFU TMPRSS4 (11747572_a_at) / Fold change /veh TMPRSS4 (11747572_a_at) / RFU HAMP (11756126_x_at) / Fold change /veh HAMP (11756126_x_at) / RFU RNFT2 (11725882_a_at) / Fold change /veh RNFT2 (11725882_a_at) / RFU NR4A2 (11747474_a_at) / Fold change /veh NR4A2 (11747474_a_at) / RFU ABCC12 (11746883_a_at) / Fold change /veh ABCC12 (11746883_a_at) / RFU TMEM136 (11760407_x_at) / Fold change /veh TMEM136 (11760407_x_at) / RFU CLDN22 /// WWC2 (11732394_at) / Fold change /veh CLDN22 /// WWC2 (11732394_at) / RFU HLA-DPB1 (11760878_x_at) / Fold change /veh HLA-DPB1 (11760878_x_at) / RFU SPINT1 (11716480_a_at) / Fold change /veh SPINT1 (11716480_a_at) / RFU GAP43 (11754022_s_at) / Fold change /veh GAP43 (11754022_s_at) / RFU A4GNT (11735810_at) / Fold change /veh A4GNT (11735810_at) / RFU PRB3 (11715151_x_at) / Fold change /veh PRB3 (11715151_x_at) / RFU TUBB4B (11761932_at) / Fold change /veh TUBB4B (11761932_at) / RFU CAPN14 (11732068_a_at) / Fold change /veh CAPN14 (11732068_a_at) / RFU TMCC2 (11721928_a_at) / Fold change /veh TMCC2 (11721928_a_at) / RFU IRGQ (11745062_a_at) / Fold change /veh IRGQ (11745062_a_at) / RFU FAM174B (11720279_a_at) / Fold change /veh FAM174B (11720279_a_at) / RFU TMPRSS4 (11748680_a_at) / Fold change /veh TMPRSS4 (11748680_a_at) / RFU FAM212B (11763350_a_at) / Fold change /veh FAM212B (11763350_a_at) / RFU PLEKHG5 (11743358_a_at) / Fold change /veh PLEKHG5 (11743358_a_at) / RFU ZSCAN30 (11745921_a_at) / Fold change /veh ZSCAN30 (11745921_a_at) / RFU CMKLR1 (11741424_a_at) / Fold change /veh CMKLR1 (11741424_a_at) / RFU LOC101060620 /// MAPK8IP1 (11723275_at) / Fold change /veh LOC101060620 /// MAPK8IP1 (11723275_at) / RFU SPTSSB (11747773_x_at) / Fold change /veh SPTSSB (11747773_x_at) / RFU PRSS12 (11739890_at) / Fold change /veh PRSS12 (11739890_at) / RFU BIN1 (11741810_x_at) / Fold change /veh BIN1 (11741810_x_at) / RFU WNT11 (11732464_a_at) / Fold change /veh WNT11 (11732464_a_at) / RFU C10orf10 (11716521_a_at) / Fold change /veh C10orf10 (11716521_a_at) / RFU C5orf56 (11738089_at) / Fold change /veh C5orf56 (11738089_at) / RFU CYB561 (11721691_x_at) / Fold change /veh CYB561 (11721691_x_at) / RFU ANKRD19P (11752326_a_at) / Fold change /veh ANKRD19P (11752326_a_at) / RFU OR2T12 /// OR2T33 /// OR2T8 (11738714_s_at) / Fold change /veh OR2T12 /// OR2T33 /// OR2T8 (11738714_s_at) / RFU VCAN (11748164_a_at) / Fold change /veh VCAN (11748164_a_at) / RFU JSRP1 (11732532_at) / Fold change /veh JSRP1 (11732532_at) / RFU KRTAP10-11 (11738290_x_at) / Fold change /veh KRTAP10-11 (11738290_x_at) / RFU MYO3A (11730013_a_at) / Fold change /veh MYO3A (11730013_a_at) / RFU EBF3 (11725865_a_at) / Fold change /veh EBF3 (11725865_a_at) / RFU CAMK2N1 (11719241_x_at) / Fold change /veh CAMK2N1 (11719241_x_at) / RFU C5orf56 (11738088_a_at) / Fold change /veh C5orf56 (11738088_a_at) / RFU OLFML3 (11715873_a_at) / Fold change /veh OLFML3 (11715873_a_at) / RFU LOC100653217 /// NTM (11731650_a_at) / Fold change /veh LOC100653217 /// NTM (11731650_a_at) / RFU MAPK11 (11762145_a_at) / Fold change /veh MAPK11 (11762145_a_at) / RFU FIZ1 (11724087_x_at) / Fold change /veh FIZ1 (11724087_x_at) / RFU OASL (11726364_x_at) / Fold change /veh OASL (11726364_x_at) / RFU SOX15 (11748057_x_at) / Fold change /veh SOX15 (11748057_x_at) / RFU CD79A (11719716_a_at) / Fold change /veh CD79A (11719716_a_at) / RFU HIST1H1D (11736915_at) / Fold change /veh HIST1H1D (11736915_at) / RFU CASKIN2 (11723855_a_at) / Fold change /veh CASKIN2 (11723855_a_at) / RFU LOC730098 (11760151_x_at) / Fold change /veh LOC730098 (11760151_x_at) / RFU OR4N2 (11742367_at) / Fold change /veh OR4N2 (11742367_at) / RFU PRRT2 (11749266_a_at) / Fold change /veh PRRT2 (11749266_a_at) / RFU SNX32 (11753110_a_at) / Fold change /veh SNX32 (11753110_a_at) / RFU CDHR5 (11726645_a_at) / Fold change /veh CDHR5 (11726645_a_at) / RFU RCAN1 (11760418_a_at) / Fold change /veh RCAN1 (11760418_a_at) / RFU FAM167A (11723789_a_at) / Fold change /veh FAM167A (11723789_a_at) / RFU FAM26E (11764081_at) / Fold change /veh FAM26E (11764081_at) / RFU ISYNA1 (11749810_s_at) / Fold change /veh ISYNA1 (11749810_s_at) / RFU ACY1 (11761880_at) / Fold change /veh ACY1 (11761880_at) / RFU 11764098_at / Fold change /veh 11764098_at / RFU SAMD14 (11745864_x_at) / Fold change /veh SAMD14 (11745864_x_at) / RFU NPB (11741838_a_at) / Fold change /veh NPB (11741838_a_at) / RFU TMPRSS6 (11731388_a_at) / Fold change /veh TMPRSS6 (11731388_a_at) / RFU KRTAP10-2 (11738614_at) / Fold change /veh KRTAP10-2 (11738614_at) / RFU ARHGAP8 /// PRR5-ARHGAP8 (11727945_x_at) / Fold change /veh ARHGAP8 /// PRR5-ARHGAP8 (11727945_x_at) / RFU KRTAP5-7 /// NADSYN1 (11734609_at) / Fold change /veh KRTAP5-7 /// NADSYN1 (11734609_at) / RFU RASL12 (11751679_a_at) / Fold change /veh RASL12 (11751679_a_at) / RFU CDKN2B (11736163_a_at) / Fold change /veh CDKN2B (11736163_a_at) / RFU PRF1 (11729649_at) / Fold change /veh PRF1 (11729649_at) / RFU, ZNF638 /// ZNF638-IT1 / Fold change vs veh, ZNF638 /// ZNF638-IT1 / RFU, PANK3 / Fold change vs veh, PANK3 / RFU, SH3YL1 / Fold change vs veh, SH3YL1 / RFU, ZEB2 / Fold change vs veh, ZEB2 / RFU, NRIP1 / Fold change vs veh, NRIP1 / RFU, PTTG1IP / Fold change vs veh, PTTG1IP / RFU, CAPN2 / Fold change vs veh, CAPN2 / RFU, MED14 / Fold change vs veh, MED14 / RFU, SNORA58 / Fold change vs veh, SNORA58 / RFU, C1orf63 / Fold change vs veh, C1orf63 / RFU, LRRFIP1 / Fold change vs veh, LRRFIP1 / RFU, NDUFAF7 / Fold change vs veh, NDUFAF7 / RFU, SLC12A2 / Fold change vs veh, SLC12A2 / RFU, IBTK / Fold change vs veh, IBTK / RFU, ESF1 / Fold change vs veh, ESF1 / Fold change vs veh, TMEM50B / RFU, TAOK1 / Fold change vs veh, TAOK1 / RFU, ACBD3 / Fold change vs veh, ACBD3 / RFU, TMA16 / Fold change vs veh, TMA16 / RFU, RWDD3 / Fold change vs veh, RWDD3 / RFU, BCAT1 / Fold change vs veh, BCAT1 / RFU, EDEM3 / Fold change vs veh, EDEM3 / RFU, TMEM33 / Fold change vs veh, TMEM33 / RFU, WDR75 / Fold change vs veh, WDR75 / RFU, AHCTF1 / Fold change vs veh, AHCTF1 / RFU, TFRC / Fold change vs veh, TFRC / RFU, ZDHHC17 / Fold change vs veh, ZDHHC17 / RFU, NOM1 / Fold change vs veh, NOM1 / RFU, ARL8B / Fold change vs veh, ARL8B / RFU, ZBTB11 / Fold change vs veh, ZBTB11 / RFU, TAMM41 / Fold change vs veh, TAMM41 / RFU, KIAA1704 /// LOC100996395 / Fold change vs veh, KIAA1704 /// LOC100996395 / RFU, ING1 / Fold change vs veh, ING1 / RFU, TRMT61B / Fold change vs veh, TRMT61B / RFU, FUBP3 / Fold change vs veh, FUBP3 / RFU, TP53 / Fold change vs veh, TP53 / RFU, TNKS2 / Fold change vs veh, TNKS2 / RFU, ZFP14 / Fold change vs veh, ZFP14 / RFU, ACTR2 / Fold change vs veh, ACTR2 / RFU, PPP3R1 / Fold change vs veh, PPP3R1 / RFU, PIK3R1 / Fold change vs veh, PIK3R1 / RFU, HNRNPA1 / Fold change vs veh, HNRNPA1 / RFU, RNF170 / Fold change vs veh, RNF170 / RFU, ZNF28 / Fold change vs veh, ZNF28 / RFU, RNGTT / Fold change vs veh, RNGTT / RFU, OGT / Fold change vs veh, OGT / RFU, BRD1 / Fold change vs veh, BRD1 / RFU, MARS / Fold change vs veh, MARS / RFU, ZNF655 / Fold change vs veh, ZNF655 / RFU, FAHD1 / Fold change vs veh, FAHD1 / RFU, BDP1 / Fold change vs veh, BDP1 / RFU, LRRCC1 / Fold change vs veh, LRRCC1 / RFU, ARID1A / Fold change vs veh, ARID1A / RFU, ZNF146 / Fold change vs veh, ZNF146 / RFU, ZNF330 / Fold change vs veh, ZNF330 / RFU, GPN3 / Fold change vs veh, GPN3 / RFU, C9orf123 / Fold change vs veh, C9orf123 / RFU, N4BP2L2 / Fold change vs veh, N4BP2L2 / RFU, ARFIP1 / Fold change vs veh, ARFIP1 / RFU, FAM179B / Fold change vs veh, FAM179B / RFU, BCL10 / Fold change vs veh, BCL10 / RFU, UHRF1BP1L / Fold change vs veh, UHRF1BP1L / RFU, BET1 / Fold change vs veh, BET1 / RFU, CNOT2 / Fold change vs veh, CNOT2 / RFU, ZNF268 / Fold change vs veh, ZNF268 / Fold change vs veh, ZNF507 / RFU, DGCR2 / Fold change vs veh, DGCR2 / RFU, WDSUB1 / Fold change vs veh, WDSUB1 / Fold change vs veh, HSP90B1 /// MIR3652 / RFU, ADSS / Fold change vs veh, ADSS / RFU, GK / Fold change vs veh, GK / RFU, ZNF148 / Fold change vs veh, ZNF148 / RFU, TAF9 / Fold change vs veh, TAF9 / RFU, SLC1A5 / Fold change vs veh, SLC1A5 / RFU, SLMO2 / Fold change vs veh, SLMO2 / RFU, ABCC4 / Fold change vs veh, ABCC4 / RFU, LOC101060439 /// RAP1B / Fold change vs veh, LOC101060439 /// RAP1B / RFU, RFX7 / Fold change vs veh, RFX7 / RFU, GTPBP10 / Fold change vs veh, GTPBP10 / RFU, CNEP1R1 / Fold change vs veh, CNEP1R1 / RFU, BIVM-ERCC5 /// ERCC5 / Fold change vs veh, BIVM-ERCC5 /// ERCC5 / RFU, ILF3 / Fold change vs veh, ILF3 / RFU 11762660_at / Fold change /veh 11762660_at / RFU VCAN (11757783_s_at) / Fold change /veh VCAN (11757783_s_at) / RFU DDX43 (11728927_at) / Fold change /veh DDX43 (11728927_at) / RFU KRT8 (11758188_x_at) / Fold change /veh KRT8 (11758188_x_at) / RFU NKD1 (11759106_at) / Fold change /veh NKD1 (11759106_at) / RFU SRD5A1 (11742802_a_at) / Fold change /veh SRD5A1 (11742802_a_at) / RFU TPSAB1 /// TPSB2 (11721975_s_at) / Fold change /veh TPSAB1 /// TPSB2 (11721975_s_at) / RFU GSTM3 (11746129_a_at) / Fold change /veh GSTM3 (11746129_a_at) / RFU IL23R (11737362_x_at) / Fold change /veh IL23R (11737362_x_at) / RFU TMEM51 (11727254_a_at) / Fold change /veh TMEM51 (11727254_a_at) / RFU PIWIL2 (11732686_x_at) / Fold change /veh PIWIL2 (11732686_x_at) / RFU ORM1 (11744905_x_at) / Fold change /veh ORM1 (11744905_x_at) / RFU CCDC152 (11743942_at) / Fold change /veh CCDC152 (11743942_at) / RFU ECM1 (11717891_a_at) / Fold change /veh ECM1 (11717891_a_at) / RFU IL23R (11748794_a_at) / Fold change /veh IL23R (11748794_a_at) / RFU TNFAIP8L3 (11732012_x_at) / Fold change /veh TNFAIP8L3 (11732012_x_at) / RFU MBOAT4 (11741988_at) / Fold change /veh MBOAT4 (11741988_at) / RFU 11764193_at / Fold change /veh 11764193_at / RFU TMEM53 (11763286_at) / Fold change /veh TMEM53 (11763286_at) / RFU MAGEB2 (11727129_at) / Fold change /veh MAGEB2 (11727129_at) / RFU TMEM200A (11744735_a_at) / Fold change /veh TMEM200A (11744735_a_at) / RFU CCDC152 (11751479_a_at) / Fold change /veh CCDC152 (11751479_a_at) / RFU FAM211A (11726209_a_at) / Fold change /veh FAM211A (11726209_a_at) / RFU RGS16 (11746705_a_at) / Fold change /veh RGS16 (11746705_a_at) / RFU VCAN (11755009_s_at) / Fold change /veh VCAN (11755009_s_at) / RFU RHOB (11743442_s_at) / Fold change /veh RHOB (11743442_s_at) / RFU RGS16 (11720943_a_at) / Fold change /veh RGS16 (11720943_a_at) / RFU RGS16 (11720944_at) / Fold change /veh RGS16 (11720944_at) / RFU, VPS4B / Fold change vs veh, VPS4B / RFU, CREB1 / Fold change vs veh, CREB1 / RFU, DNAJC13 / Fold change vs veh, DNAJC13 / RFU, GNAQ / Fold change vs veh, GNAQ / RFU, CDK5R1 / Fold change vs veh, CDK5R1 / RFU, ZRANB3 / Fold change vs veh, ZRANB3 / RFU, CUL4A / Fold change vs veh, CUL4A / RFU, CCNY / Fold change vs veh, CCNY / RFU, UFL1 / Fold change vs veh, UFL1 / RFU, COG3 / Fold change vs veh, COG3 / RFU, DIAPH2 / Fold change vs veh, DIAPH2 / RFU, SKA2 / Fold change vs veh, SKA2 / RFU, AFF3 / Fold change vs veh, AFF3 / RFU, LMF1 / Fold change vs veh, LMF1 / RFU, IPO11 / Fold change vs veh, IPO11 / RFU, DFFB / Fold change vs veh, DFFB / RFU, FOXP1 / Fold change vs veh, FOXP1 / RFU, CARD8 / Fold change vs veh, CARD8 / RFU, STRN3 / Fold change vs veh, STRN3 / RFU, ADK / Fold change vs veh, ADK / RFU, RASSF2 / Fold change vs veh, RASSF2 / RFU, WIPF1 / Fold change vs veh, WIPF1 / RFU, LARP1B / Fold change vs veh, LARP1B / RFU, RASA1 / Fold change vs veh, RASA1 / RFU, RB1 / Fold change vs veh, RB1 / RFU, PPFIA1 / Fold change vs veh, PPFIA1 / RFU, MAT2A / Fold change vs veh, MAT2A / RFU, CCT5 / Fold change vs veh, CCT5 / RFU, WDR92 / Fold change vs veh, WDR92 / RFU, CUX1 / Fold change vs veh, CUX1 / RFU, TTC7A / Fold change vs veh, TTC7A / RFU, TMEM135 / Fold change vs veh, TMEM135 / RFU, DEPTOR / Fold change vs veh, DEPTOR / RFU, CPM / Fold change vs veh, CPM / RFU, DNAJB6 / Fold change vs veh, DNAJB6 / RFU, CACNA2D3 / Fold change vs veh, CACNA2D3 / RFU, DTX4 / Fold change vs veh, DTX4 / RFU, TFCP2 / Fold change vs veh, TFCP2 / RFU, GMCL1 /// GMCL1P1 / Fold change vs veh, GMCL1 /// GMCL1P1 / RFU, AEBP2 / Fold change vs veh, AEBP2 / RFU, SNHG1 /// SNORD22 /// SNORD25 /// SNORD26 /// SNORD27 /// SNORD28 /// SNORD29 /// SNORD31 / Fold change vs veh, SNHG1 /// SNORD22 /// SNORD25 /// SNORD26 /// SNORD27 /// SNORD28 /// SNORD29 /// SNORD31 / Fold change (Aza/veh), C12orf56 (ProbeSet 11735607_a_at) / Fold change (ACY-1035/veh), C12orf56 (ProbeSet 11735607_a_at) / Fold change (Aza/veh), FGFR1OP (ProbeSet 11751329_s_at) / Fold change (ACY-1035/veh), FGFR1OP (ProbeSet 11751329_s_at) / Fold change (Aza/veh), VPS36 (ProbeSet 11739960_a_at) / Fold change (ACY-1035/veh), VPS36 (ProbeSet 11739960_a_at) / RFU SYPL1 (11715823_x_at) / Fold change /veh SYPL1 (11715823_x_at) / RFU IGFBP7 (11715501_s_at) / Fold change /veh IGFBP7 (11715501_s_at) / RFU REEP3 (11722064_at) / Fold change /veh REEP3 (11722064_at) / RFU IGLL1 (11728026_x_at) / Fold change /veh IGLL1 (11728026_x_at): dose or concentration left out as unconfirmed
Conditions: ProbeSet 11741311_a_at; LIST B

Nc1ccc(-c2cccs2)cc1NC(=O)c1ccc2c(c1)cc(C1CC1)n2CCN1CCOCC1 [ACY-1035]
Fold change vs veh, ZNF655: 0.99
